Tested on: T1, urease
T1 construct: gene jack bean urease
Conditions: 100 mM urea, room temperature, 10 min; reference inhibitor

NC(N)=S [Thiourea]
Urease IC50: 24.5 ± 0.7 µg/mL

Source: PMC12743403, “Green-synthesized silver nanoparticles from Camellia sinensis: mechanistic insights into phenolic-mediated multifunctional biological activities” (BMC Plant Biology, 2025)
